The text below walks through data of patent publication US20260193249A1, “PREPARATION OF PYRAZOLOPYRIDINE AND TRIAZOLOPYRIDINE DERIVATIVES AS NOVEL DIACYLGLYCERIDE O-ACYLTRANSFERASE 2 INHIBITORS” (Merck Sharp & Dohme LLC, priority 2022, published 2026).

For orientation: IC50 means the concentration that inhibits the measured activity by half.

This test has as its target T1, human DGAT2 (Homo sapiens, UniProt Q96PD7).
T1 construct: made in house; host or cells: Sf-9 insect cells (baculovirus), membrane fraction
T1 sequence (Q96PD7 1-388): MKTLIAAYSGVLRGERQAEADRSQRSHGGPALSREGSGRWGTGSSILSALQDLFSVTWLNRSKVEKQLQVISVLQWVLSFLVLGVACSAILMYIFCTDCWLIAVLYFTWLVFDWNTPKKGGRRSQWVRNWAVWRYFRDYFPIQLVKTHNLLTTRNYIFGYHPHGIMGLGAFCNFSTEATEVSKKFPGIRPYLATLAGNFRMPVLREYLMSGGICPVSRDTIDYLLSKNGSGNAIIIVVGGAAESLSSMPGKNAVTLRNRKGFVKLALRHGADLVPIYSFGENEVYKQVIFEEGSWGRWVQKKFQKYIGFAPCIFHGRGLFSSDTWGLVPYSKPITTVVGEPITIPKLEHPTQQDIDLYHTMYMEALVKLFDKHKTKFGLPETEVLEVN
As to the kind of experiment: DGAT2 Enzymatic Activity Assay. The class given is biochemical. The following applies: membrane prep of Sf-9 insect cells expressing hDGAT2; 13C18-triolein product by LC/MS/MS; 25 μM diolein, 5 μM 13C oleoyl-CoA. The gist of the method: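 Membrane fractions from Sf-9 cells expressing untagged human DGAT2 (baculovirus, 48 h) used as enzyme; reaction run at rt. Product ^13C18-triolein quantified by LC/MS/MS (positive HESI, C4 column) against ^13C21-triolein internal standard after liquid-liquid extraction; % inhibition versus high/low controls and IC50 derived.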
As to `CC1(NC(=O)c2cc3c(F)c(Oc4ncc(F)cc4OCC(F)(F)F)ccn3n2)CCS(=O)(=O)CC1` [Example 56, 4-Fluoro-5-((5-fluoro-3-(2,2,2-trifluoroethoxy)pyridin-2-yl)oxy)-N-(4-methyl-1,1-dioxidotetrahydro-2H-thiopyran-4-yl)pyrazolo[1,5-a]pyridine-2-carboxamide], the IC50 was found to be 20 nM.

Take `Cc1c(Oc2ncc(F)cc2OCC(F)(F)F)ccn2nc(C(=O)NC3(C)CCS(=O)(=O)CC3)cc12` [Example 58, 5-((5-Fluoro-3-(2,2,2-trifluoroethoxy)pyridin-2-yl)oxy)-4-methyl-N-(4-methyl-1,1-dioxidotetrahydro-2H-thiopyran-4-yl)pyrazolo[1,5-a]pyridine-2-carboxamide]: 6.6 nM corresponded to half-maximal inhibition (IC50).

Compound `Cc1cc(Oc2ncc(F)cc2OCC(F)(F)F)cc2cc(C(=O)NC3(C)CCS(=O)(=O)CC3)nn12` [Example 59, 5-((5-Fluoro-3-(2,2,2-trifluoroethoxy)pyridin-2-yl)oxy)-7-methyl-N-(4-methyl-1,1-dioxidotetrahydro-2H-thiopyran-4-yl)pyrazolo[1,5-a]pyridine-2-carboxamide] returned an IC50 of 6 nM.

On to `Cc1cn2nc(C(=O)NC3(C)CCS(=O)(=O)CC3)cc2cc1Oc1ncc(F)cc1OCC(F)(F)F` [Example 60, 5-((5-Fluoro-3-(2,2,2-trifluoroethoxy)pyridin-2-yl)oxy)-6-methyl-N-(4-methyl-1,1-dioxidotetrahydro-2H-thiopyran-4-yl)pyrazolo[1,5-a]pyridine-2-carboxamide], for which inhibition was half-maximal at 3.5 nM (IC50). This IC50 lies about 1.7-fold lower than the previous one.

Regarding `CC1(NC(=O)c2nn3ccc(Oc4ncc(Cl)cc4OCC(F)F)nc3c2F)CCS(=O)(=O)CC1` [Example 61, 5-((5-Chloro-3-(2,2-difluoroethoxy)pyridin-2-yl)oxy)-3-fluoro-N-(4-methyl-1,1-dioxidotetrahydro-2H-thiopyran-4-yl)pyrazolo[1,5-a]pyrimidine-2-carboxamide], the midpoint of inhibition, the IC50, lay at 133 nM.

Turning to `CC1(NC(=O)c2cc3nc(Oc4ncc(Cl)cc4OCC(F)F)ccn3n2)CCS(=O)(=O)CC1` [Example 62, 5-((5-Chloro-3-(2,2-difluoroethoxy)pyridin-2-yl)oxy)-N-(4-methyl-1,1-dioxidotetrahydro-2H-thiopyran-4-yl)pyrazolo[1,5-a]pyrimidine-2-carboxamide], the IC50 came to 86 nM.

`CC1(NC(=O)c2nc3cc(Oc4ncc(Cl)cc4OCC(F)(F)F)ccn3n2)CCS(=O)(=O)CC1` [Example 63, 7-((5-Chloro-3-(2,2,2-trifluoroethoxy)pyridin-2-yl)oxy)-N-(4-methyl-1,1-dioxidotetrahydro-2H-thiopyran-4-yl)-[1,2,4]triazolo[1,5-a]pyridine-2-carboxamide] returned an IC50 of 349 nM.

As to `O=C(NC1(C(F)F)CCS(=O)(=O)CC1)c1nc2cc(Oc3ncc(Cl)cc3OCC(F)(F)F)ccn2n1` [Example 64, 7-((5-Chloro-3-(2,2,2-trifluoroethoxy)pyridin-2-yl)oxy)-N-(4-(difluoromethyl)-1,1-dioxidotetrahydro-2H-thiopyran-4-yl)-[1,2,4]triazolo[1,5-a]pyridine-2-carboxamide], inhibition was half-maximal at 165 nM (IC50).

`O=C(NC1(CC(F)(F)F)CCS(=O)(=O)CC1)c1nc2cc(Oc3ncc(Cl)cc3OCC(F)(F)F)ccn2n1` [Example 65, 7-((5-Chloro-3-(2,2,2-trifluoroethoxy)pyridin-2-yl)oxy)-N-(1,1-dioxido-4-(2,2,2-trifluoroethyl)tetrahydro-2H-thiopyran-4-yl)-[1,2,4]triazolo[1,5-a]pyridine-2-carboxamide] displayed an IC50 of 160 nM.

Compound `CC1(NC(=O)c2nc3cc(Oc4ncc(Cl)cc4OCC(F)(F)F)ccn3n2)CS(=O)(=O)C1` [Example 66, 7-((5-Chloro-3-(2,2,2-trifluoroethoxy)pyridin-2-yl)oxy)-N-(3-methyl-1,1-dioxidothietan-3-yl)-[1,2,4]triazolo[1,5-a]pyridine-2-carboxamide] had an IC50 of 67 nM. This IC50 is about 2.4-fold lower than that of the compound before.

With `CC1(NC(=O)c2cc3nc(OCc4ncc(Cl)cc4OCC(F)F)ccn3n2)CCS(=O)(=O)CC1` [Example 67, 5-((5-Chloro-3-(2,2-difluoroethoxy)pyridin-2-yl)methoxy)-N-(4-methyl-1,1-dioxidotetrahydro-2H-thiopyran-4-yl)pyrazolo[1,5-a]pyrimidine-2-carboxamide], the IC50 is 3.3 nM.

Take `COc1cccc(COc2ccn3nc(C(=O)NC4(C)CCS(=O)(=O)CC4)cc3n2)n1` [Example 68, 5-((6-Methoxypyridin-2-yl)methoxy)-N-(4-methyl-1,1-dioxidotetrahydro-2H-thiopyran-4-yl)pyrazolo[1,5-a]pyrimidine-2-carboxamide]: the IC50 was greater than 9990 nM.

For the compound `CCOc1cccc(COc2ccn3nc(C(=O)NC4(C)CCS(=O)(=O)CC4)cc3n2)n1` [Example 69, 5-((6-Ethoxypyridin-2-yl)methoxy)-N-(4-methyl-1,1-dioxidotetrahydro-2H-thiopyran-4-yl)pyrazolo[1,5-a]pyrimidine-2-carboxamide], half-maximal inhibition (IC50) required 264 nM.

Regarding `COc1ccc(Cl)c(COc2ccn3nc(C(=O)NC4(C)CCS(=O)(=O)CC4)cc3n2)n1` [Example 70, 5-((3-Chloro-6-methoxypyridin-2-yl)methoxy)-N-(4-methyl-1,1-dioxidotetrahydro-2H-thiopyran-4-yl)pyrazolo[1,5-a]pyrimidine-2-carboxamide], the IC50 is 82 nM.
